Measurements published in patent publication US6638919B2, “Antiviral purine derivatives” (University College Cardiff Consultants Limited, priority 2001, dated 2003).
Where two headings read alike, the source gives them in different places.

What was measured:
[1] = Acid stability, dilute HCl pH1, simulated stomach conditions; format: physicochemical; settings: 0.1N HCl pH1, 25° C.
Procedure: Compounds were tested for their stability towards acid-mediated hydrolytic decomposition employing a test designed to simulate stomach conditions. Each compound was incubated in dilute HCl of pH1 for 24 hours at 25° C. 0.3 mg of compound were added to 1 mL of 0.1N HCl at 25° C. HPLC was run immediately for time=0 and at intervals up to approximately 24 hours.

[2] = human, plasma
Procedure: (§2) Each compound was incubated in normal heparinised human plasma at 37° C. for 4 hours. […] Drug concentrations were then determined by LC/MS/MS analysis using standard methods.

HIV-2 [3] = settings: Table II, known data disclosed in PCT/GB96/00580; read-out: EC50/μM HIV-2 CEM; cited from earlier work
HIV-1 [4] = settings: read-out: EC50/μM HIV-1 CEM; Table II, known data disclosed in PCT/GB96/00580; cited from earlier work
CEM cells = settings: read-out: CC50/μM CEM; Table II, known data disclosed in PCT/GB96/00580; cited from earlier work
[5] = Biological stability in heparinised human plasma; settings: heparinised human plasma, 37° C.
Procedure: as §2

HIV-1 [6] = assay: Inhibition of HIV-1 giant cell formation in CEM cells; format: cell-based; settings: Human immunodeficiency virus 1, CCRF-CEM, 96 h; CEM cells, giant cell formation after 4 days; Tables I and II; read-out: EC50/μM HIV-1 CEM
Procedure: (§1) Then 100 μL of the infected cell suspension was transferred to microtiter plate wells and mixed with 100 μL of the appropriate dilutions of the test compounds.
HIV 1 CEM: EC50 in μM for inhibition of HIV1 in CEM cells

HIV-2 [7] = assay: Inhibition of HIV-2 giant cell formation in CEM cells; format: cell-based; settings: Human immunodeficiency virus 2, CCRF-CEM, 96 h; CEM cells, giant cell formation after 4 days; Tables I and II; read-out: EC50/μM HIV-2 CEM
Procedure: as §1
HIV1 CEM: EC50 in μM for inhibition of […] in CEM cells.
HIV2 CEM: EC50 in μM for inhibition of HIV-2 in CEM cells

[8] = Toxicity to mock-infected CEM cells (CC50); format: cell-based; settings: human; mock-infected CEM cells; Tables I and II; read-out: CC50/μM CEM
Procedure: as §1
CC50 CEM: CC50 in μM for toxicity to CEM cells.
CC50 CEM: CC50 μM for toxicity to CEM cells

HIV-1 [9] = assay: Inhibition of HIV-1 giant cell formation in CEM cells; format: cell-based; settings: mean increase in potency of phosphoramidate versus its parent nucleoside for HIV 1 and HIV 2

| Structure (SMILES) | time to degradation in acid [1] | Compound left (%) ([1]; time 0 hr) | Compound left (%) ([1]; time 13 hr) | % Remaining at 4 hours [2] | EC50 (HIV-2 [3]) | EC50 (HIV-1 [4]) | CC50 (CEM cells) | Half-life [5] | EC50 (HIV-1 [6]) | EC50 (HIV-2 [7]) | CC50 [8] | Fold Improvement (HIV-1 [9]) |
| --- | --- | --- | --- | --- | --- | --- | --- | --- | --- | --- | --- | --- |
| COC(=O)C(C)NP(=O)(OC[C@@H]1CC[C@H](n2cnc3c(N)ncnc32)O1)Oc1ccccc1 (stereo partly drawn) [Compound 1093, 2′, 3′-dideoxy adenosine 5′-(phenylmethoxyalaninyl) phosphoramidate] | less than 13 hours | 100% | 0% | 50% | 0.035 µM | 0.016 µM | 2.57 µM | 4.2 h | – | – | – | – |
| COC(=O)C(C)NP(=O)(OCC1C=CC(n2cnc3c(=O)[nH]c(N)nc32)C1)Oc1ccccc1 [Example A, (1R, 4S)-9-14-(hydroxymethyl)-2-cyclopenten-2-yl] guanine-5′-[phenyl-(methoxy-L-alaninyl)]-phosphate, reference compound] | – | – | – | – | – | – | – | – | 1.3 µM | 0.85 µM | 123 µM | 1.9 |
